Results as given in patent US20050112573A1, “Method of detecting toxic substance” (priority 2001, published 2005).

Tested on: yeast genes (level of expressed mRNA)
Test: DNA chip analysis of expressed mRNA of yeast genes after 2 h culture with a toxic chemical substance
Assay type: cell-based, Saccharomyces cerevisiae S288C
Conditions: for The level of expressed mRNA in the presence of chemical substance/ (ratio to absence): transport facilitation protein gene; for The level of expressed mRNA in the presence of chemical substance/: ratio to no chemical; for The level of expressed mRNA in the presence of chemical substance/ (ratio to absence of chemical substance): stress protein genes, DNA chip
Summary of the method: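 Values are treated-to-control fluorescence ratios from a whole-yeast-genome DNA chip (65° C, over 12 h hybridization) using Cy3/Cy5-labelled cDNA from mRNA. Log-phase S288C cells in YPD at 25° C were exposed 2 h to a toxicant at sublethal, growth-inhibiting concentration.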

sodium dodecylbenzosulfonate [(17)]
The level of expressed mRNA in the presence of chemical substance/in the absence of chemical substance (yeast gene YDR313C): 1.1 | The level of expressed mRNA in the presence of chemical substance/The level of expressed mRNA in the absence of chemical substance (yeast gene YDR315C): 1.2 | The level of expressed mRNA in the presence of chemical substance/ (ratio to absence) (yeast gene YDR342C): 1.0 | The level of expressed mRNA in the presence of chemical substance/ (ratio to absence) (yeast gene YDR343C): 1.1 | The level of expressed mRNA in the presence of chemical substance/ (yeast gene YDR350C): 1.4 | The level of expressed mRNA in the presence of chemical substance/The level of expressed mRNA in the absence of chemical substance (yeast gene YDR358W): 1.9 | The level of expressed mRNA in the presence of chemical substance/in the absence of chemical substance (yeast gene YDR368W): 1.1 | The level of expressed mRNA in the presence of chemical substance/ (yeast gene YDR374C): 1.0 | The level of expressed mRNA in the presence of chemical substance/ (ratio to absence), gene YDR377W (yeast gene YDR377W, mitochondria-located protein genes, 2 h culture with chemical): 1.2 | The level of expressed mRNA in the presence of chemical substance/ (in its absence), gene YDR387C (yeast gene YDR387C, ratio of DNA chip fluorescence intensity to that without chemical substance): 1.2 | The level of expressed mRNA in the presence of chemical substance/The level of expressed mRNA in the absence of chemical substance (yeast gene YDR388W): 1.2 | The level of expressed mRNA in the presence of chemical substance/The level of expressed mRNA in the absence of chemical substance (yeast gene YDR432W): 0.7 | The level of expressed mRNA in the presence of chemical substance/The level of expressed mRNA in the absence of chemical substance (yeast gene YDR481C): 1.2 | The level of expressed mRNA in the presence of chemical substance/ (yeast gene YDR494W): 1.1 | The level of expressed mRNA in the presence of chemical substance/in the absence of chemical substance (yeast gene YDR497C): 1.6 | The level of expressed mRNA in the presence of chemical substance/ (ratio to absence) (yeast gene YDR497C): 1.6 | The level of expressed mRNA in the presence of chemical substance/The level of expressed mRNA in the absence of chemical substance (yeast gene YDR510W): 1.1 | The level of expressed mRNA in the presence of chemical substance/ (yeast gene YDR512C): 1.3 | The level of expressed mRNA in the presence of chemical substance/in the absence of chemical substance (yeast gene YDR516C): 1.1 | The level of expressed mRNA in the presence of chemical substance/ (yeast gene YDR531W): 1.5 | The level of expressed mRNA in the presence of chemical substance/ (ratio to absence) (yeast gene YEL027W): 1.0 | The level of expressed mRNA in the presence of chemical substance/ (ratio to absence of chemical substance) (yeast gene YEL039C): 0.7 | The level of expressed mRNA in the presence of chemical substance/ (yeast gene YEL041W): 1.5 | The level of expressed mRNA in the presence of chemical substance/The level of expressed mRNA in the absence of chemical substance (yeast gene YEL042W): 0.7 | The level of expressed mRNA in the presence of chemical substance/ (ratio to absence) (yeast gene YEL065W): 0.7 | The level of expressed mRNA in the presence of chemical substance/The level of expressed mRNA in the absence of chemical substance (yeast gene YEL066W): 1.0 | The level of expressed mRNA in the presence of chemical substance/ (yeast gene YEL072W): 0.8 | The level of expressed mRNA in the presence of chemical substance/ (in its absence), gene YER015W (yeast gene YER015W, ratio of DNA chip fluorescence intensity to that without chemical substance): 1.6 | The level of expressed mRNA in the presence of chemical substance/The level of expressed mRNA in the absence of chemical substance (yeast gene YER039C): 1.7 | The level of expressed mRNA in the presence of chemical substance/ (yeast gene YER045C): 1.1 | The level of expressed mRNA in the presence of chemical substance/in the absence of chemical substance (yeast gene YER053C): 1.2 | The level of expressed mRNA in the presence of chemical substance/ (ratio to absence) (yeast gene YER053C): 1.2 | The level of expressed mRNA in the presence of chemical substance/ (ratio to absence of chemical substance) (yeast gene YER057C): 1.1 | The level of expressed mRNA in the presence of chemical substance/in the absence of chemical substance (yeast gene YER091C): 1.2 | The level of expressed mRNA in the presence of chemical substance/in the absence of chemical substance (yeast gene YER096W): 1.0 | The level of expressed mRNA in the presence of chemical substance/The level of expressed mRNA in the absence of chemical substance (yeast gene YER107C): 1.1 | The level of expressed mRNA in the presence of chemical substance/ (ratio to absence) (yeast gene YER119C): 1.0 | The level of expressed mRNA in the presence of chemical substance/ (yeast gene YER124C): 0.9 | The level of expressed mRNA in the presence of chemical substance/The level of expressed mRNA in the absence of chemical substance (yeast gene YER130C): 3.0 | The level of expressed mRNA in the presence of chemical substance/in the absence of chemical substance (yeast gene YER178W): 1.1 | The level of expressed mRNA in the presence of chemical substance/ (yeast gene YER181C): 0.7 | The level of expressed mRNA in the presence of chemical substance/in the absence of chemical substance (yeast gene YFL014W): 1.5 | The level of expressed mRNA in the presence of chemical substance/The level of expressed mRNA in the absence of chemical substance (yeast gene YFL028C): 1.2 | The level of expressed mRNA in the presence of chemical substance/in the absence of chemical substance (yeast gene YFL030W): 1.0 | The level of expressed mRNA in the presence of chemical substance/in the absence of chemical substance (yeast gene YFL031W): 1.2 | The level of expressed mRNA in the presence of chemical substance/ (ratio to absence) (yeast gene YFL041W): 1.1 | The level of expressed mRNA in the presence of chemical substance/The level of expressed mRNA in the absence of chemical substance (yeast gene YFL043C): 1.5 | The level of expressed mRNA in the presence of chemical substance/ (ratio to absence) (yeast gene YFL054C): 1.7 | The level of expressed mRNA in the presence of chemical substance/ (ratio to absence) (yeast gene YFL055W): 1.4 | The level of expressed mRNA in the presence of chemical substance/in the absence of chemical substance (yeast gene YFL056C): 1.0 | The level of expressed mRNA in the presence of chemical substance/in the absence of chemical substance (yeast gene YFL057C): 1.6 | The level of expressed mRNA in the presence of chemical substance/in the absence of chemical substance (yeast gene YFL061W): 1.2 | The level of expressed mRNA in the presence of chemical substance/ (yeast gene YFR017C): 0.9 | The level of expressed mRNA in the presence of chemical substance/ (yeast gene YFR042W): 1.7 | The level of expressed mRNA in the presence of chemical substance/ (ratio to absence) (yeast gene YFR045W): 0.9 | The level of expressed mRNA in the presence of chemical substance/ (yeast gene YFR046C): 1.2 | The level of expressed mRNA in the presence of chemical substance/in the absence of chemical substance (yeast gene YFR047C): 1.5 | The level of expressed mRNA in the presence of chemical substance/in the absence of chemical substance (yeast gene YFR053C): 1.4 | The level of expressed mRNA in the presence of chemical substance/ (ratio to absence) (yeast gene YGL008C): 1.1 | The level of expressed mRNA in the presence of chemical substance/ (in its absence), gene YGL035C (yeast gene YGL035C, ratio of DNA chip fluorescence intensity to that without chemical substance): 0.9 | The level of expressed mRNA in the presence of chemical substance/ (yeast gene YGL046W): 1.5 | The level of expressed mRNA in the presence of chemical substance/in the absence of chemical substance (yeast gene YGL062W): 1.1 | The level of expressed mRNA in the presence of chemical substance/ (yeast gene YGL067W): 0.9 | The level of expressed mRNA in the presence of chemical substance/ (yeast gene YGL098W): 1.1 | The level of expressed mRNA in the presence of chemical substance/ (ratio to absence) (yeast gene YGL104C): 1.3 | The level of expressed mRNA in the presence of chemical substance/ (yeast gene YGL114W): 0.9 | The level of expressed mRNA in the presence of chemical substance/ (in its absence), gene YGL115W (yeast gene YGL115W, ratio of DNA chip fluorescence intensity to that without chemical substance): 0.8 | The level of expressed mRNA in the presence of chemical substance/ (ratio to absence of chemical substance) (yeast gene YGL115W): 0.8 | The level of expressed mRNA in the presence of chemical substance/ (yeast gene YGL117W): 2.1 | The level of expressed mRNA in the presence of chemical substance/ (yeast gene YGL146C): 1.0 | The level of expressed mRNA in the presence of chemical substance/in the absence of chemical substance (yeast gene YGL156W): 1.4 | The level of expressed mRNA in the presence of chemical substance/in the absence of chemical substance (yeast gene YGL157W): 1.8 | The level of expressed mRNA in the presence of chemical substance/The level of expressed mRNA in the absence of chemical substance (yeast gene YGL158W): 0.8 | The level of expressed mRNA in the presence of chemical substance/ (ratio to absence) (yeast gene YGL167C): 1.4 | The level of expressed mRNA in the presence of chemical substance/in the absence of chemical substance (yeast gene YGL184C): 1.0 | The level of expressed mRNA in the presence of chemical substance/ (ratio to absence), gene YGL187C (yeast gene YGL187C, mitochondria-located protein genes, 2 h culture with chemical): 0.9 | The level of expressed mRNA in the presence of chemical substance/ (yeast gene YGL193C): 1.1 | The level of expressed mRNA in the presence of chemical substance/ (yeast gene YGL204C): 0.9 | The level of expressed mRNA in the presence of chemical substance/ (in its absence), gene YGL205W (yeast gene YGL205W, ratio of DNA chip fluorescence intensity to that without chemical substance): 3.9 | The level of expressed mRNA in the presence of chemical substance/The level of expressed mRNA in the absence of chemical substance (yeast gene YGL229C): 1.1 | The level of expressed mRNA in the presence of chemical substance/ (yeast gene YGL250W): 1.2 | The level of expressed mRNA in the presence of chemical substance/ (ratio to absence) (yeast gene YGL255W): 0.6 | The level of expressed mRNA in the presence of chemical substance/ (yeast gene YGL259W): 0.9 | The level of expressed mRNA in the presence of chemical substance/ (yeast gene YGR011W): 0.9 | The level of expressed mRNA in the presence of chemical substance/in the absence of chemical substance (yeast gene YGR032W): 3.2 | The level of expressed mRNA in the presence of chemical substance/ (yeast gene YGR042W): 1.3 | The level of expressed mRNA in the presence of chemical substance/in the absence of chemical substance (yeast gene YGR043C): 1.6 | The level of expressed mRNA in the presence of chemical substance/ (yeast gene YGR053C): 1.5 | The level of expressed mRNA in the presence of chemical substance/ (ratio to absence) (yeast gene YGR055W): 0.7 | The level of expressed mRNA in the presence of chemical substance/ in its absence, gene YGR062C (yeast gene YGR062C, energy system protein genes, 2 h culture with the chemical, ratio to control without chemical): 0.9 | The level of expressed mRNA in the presence of chemical substance/ (ratio to absence), gene YGR062C (yeast gene YGR062C, mitochondria-located protein genes, 2 h culture with chemical): 0.9 | The level of expressed mRNA in the presence of chemical substance/ (ratio to absence) (yeast gene YGR065C): 0.7 | The level of expressed mRNA in the presence of chemical substance/ (yeast gene YGR066C): 1.0 | The level of expressed mRNA in the presence of chemical substance/ (in its absence), gene YGR096W (yeast gene YGR096W, ratio of DNA chip fluorescence intensity to that without chemical substance): 0.8
